Source: the supplement of paper PMC12513837
± gives the standard deviation of the averaged measurements.

These test systems were tested with CC(=O)N1CCc2c(c(N3CCCc4cc(-c5cnn(C)c5)c(C(F)F)cc43)nn2C2CCC(CN3CCN(c4ccc5c(c4)C(=O)N(C4CCC(=O)NC4=O)C5=O)CC3)CC2)C1 [CBPD-409] (assay: AUC of viability dose-response curve (relative to vehicle, 8 doses up to 10 µM) (fraction); higher = less sensitive (more viable); extreme values may be limits of the assay).
Description: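 PRISM multiplexed pooled barcoded cell line viability screen at the Broad Institute, 887 cancer cell lines treated with CBPD-409 (p300/CBP PROTAC degrader) at 8 concentrations in threefold dilution, top dose 10 µM. The read-out is the area under the dose-response curve of relative viability versus vehicle (n=3). AUC < 0.3 is called strongly sensitive and AUC > 0.8 resistant.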

Point of comparison: “TANOUE_HAEMATOPOIETIC_AND_LYMPHOID_TISSUE”, “AUC of viability dose-response curve” value 1. Against it:
- SNU119_OVARY — the same, 1
- SNU182_LIVER — lower, 0.274
- SNU201_CENTRAL_NERVOUS_SYSTEM — lower, 0.382
- SNU213_PANCREAS — lower, 0.933
- SNU216_STOMACH — the same, 1
- SNU245_BILIARY_TRACT — lower, 0.719
- SNU308_BILIARY_TRACT — lower, 0.95
- SNU398_LIVER — lower, 0.849
- SNU407_LARGE_INTESTINE — lower, 0.502
- SNU410_PANCREAS — the same, 1
- SNU423_LIVER — lower, 0.751
- SNU449_LIVER — lower, 0.947
- SNU466_CENTRAL_NERVOUS_SYSTEM — lower, 0.909
- SNU478_BILIARY_TRACT — lower, 0.861
- SNU489_CENTRAL_NERVOUS_SYSTEM — the same, 1
- SNU601_STOMACH — lower, 0.563
- SNU638_STOMACH — lower, 0.48
- SNU668_STOMACH — lower, 0.999
- SNU685_ENDOMETRIUM — the same, 1
- SNU719_STOMACH — lower, 0.969
- SNU761_LIVER — lower, 0.855
- SNU840_OVARY — the same, 1
- SNU869_BILIARY_TRACT — the same, 1
- SNU886_LIVER — lower, 0.853
- SNU899_UPPER_AERODIGESTIVE_TRACT — lower, 0.668
- SNU1041_UPPER_AERODIGESTIVE_TRACT — lower, 0.703
- SNU1066_UPPER_AERODIGESTIVE_TRACT — the same, 1
- SNU1076_UPPER_AERODIGESTIVE_TRACT — lower, 0.845
- SNU1077_ENDOMETRIUM — lower, 0.846
- SNU1079_BILIARY_TRACT — lower, 0.648
- SNU1105_CENTRAL_NERVOUS_SYSTEM — lower, 0.577
- SNU1196_BILIARY_TRACT — the same, 1
- SNU1214_UPPER_AERODIGESTIVE_TRACT — lower, 0.739
- SNU1544_LARGE_INTESTINE — lower, 0.806
- SNU2372_BREAST — the same, 1
- SNUC2A_LARGE_INTESTINE — lower, 0.514
- SNUC4_LARGE_INTESTINE — lower, 0.595
- SQ1_LUNG — the same, 1
- SSP25_BILIARY_TRACT — lower, 0.801
- STM9101_SOFT_TISSUE — the same, 1
- SUDHL1_HAEMATOPOIETIC_AND_LYMPHOID_TISSUE — lower, 0.75
- SUDHL4_HAEMATOPOIETIC_AND_LYMPHOID_TISSUE — lower, 0.958
- SUDHL8_HAEMATOPOIETIC_AND_LYMPHOID_TISSUE — lower, 0.726
- SUIT2_PANCREAS — the same, 1
- SUM149PT_BREAST — lower, 0.789
- SUM159PT_BREAST — lower, 0.732
- SUPB15_HAEMATOPOIETIC_AND_LYMPHOID_TISSUE — lower, 0.185
- SUPT11_HAEMATOPOIETIC_AND_LYMPHOID_TISSUE — the same, 1
- SUSA_TESTIS — lower, 0.578
- SW13_ADRENAL_CORTEX — lower, 0.602
- SW156_KIDNEY — lower, 0.884
- SW480_LARGE_INTESTINE — the same, 1
- SW579_THYROID — lower, 0.197
- SW620_LARGE_INTESTINE — lower, 0.559
- SW626_LARGE_INTESTINE — lower, 0.387
- SW756_CERVIX — lower, 0.437
- SW780_URINARY_TRACT — the same, 1
- SW837_LARGE_INTESTINE — lower, 0.72
- SW900_LUNG — lower, 0.853
- SW948_LARGE_INTESTINE — lower, 0.577
- SW954_CERVIX — lower, 0.702
- SW1088_CENTRAL_NERVOUS_SYSTEM — the same, 1
- SW1116_LARGE_INTESTINE — the same, 1
- SW1271_LUNG — lower, 0.564
- SW1353_BONE — the same, 1
- SW1463_LARGE_INTESTINE — the same, 1
- SW1573_LUNG — the same, 1
- SW1710_URINARY_TRACT — lower, 0.8
- SW1783_CENTRAL_NERVOUS_SYSTEM — lower, 0.884
- SW1990_PANCREAS — the same, 1
- T3M5_THYROID — lower, 0.776
- T3M10_LUNG — lower, 0.64
- T24_URINARY_TRACT — the same, 1
- T47D_BREAST — lower, 0.593
- T84_LARGE_INTESTINE — the same, 1
- T98G_CENTRAL_NERVOUS_SYSTEM — lower, 0.8
- TALL1_HAEMATOPOIETIC_AND_LYMPHOID_TISSUE — lower, 0.762
- TASK1_CENTRAL_NERVOUS_SYSTEM — lower, 0.342
- TC32_BONE — lower, 0.859
- TC106_BONE — the same, 1
- TC205_BONE — lower, 0.543
- TCCPAN2_PANCREAS — lower, 0.875
- TCCSUP_URINARY_TRACT — the same, 1
- TE1_OESOPHAGUS — lower, 0.884
- TE5_OESOPHAGUS — lower, 0.998
- TE6_OESOPHAGUS — lower, 0.914
- TE8_OESOPHAGUS — lower, 0.646
- TE9_OESOPHAGUS — the same, 1
- TE10_OESOPHAGUS — lower, 0.501
- TE11_OESOPHAGUS — lower, 0.986
- TE14_OESOPHAGUS — lower, 0.86
- TE15_OESOPHAGUS — lower, 0.364
- TE617T_SOFT_TISSUE — lower, 0.851
- TEN_ENDOMETRIUM — lower, 0.726
- TF1_HAEMATOPOIETIC_AND_LYMPHOID_TISSUE — lower, 0.757
- TFK1_BILIARY_TRACT — lower, 0.717
- TGBC1TKB_BILIARY_TRACT — the same, 1
- TGBC18TKB_LARGE_INTESTINE — lower, 0.938
- TGBC52TKB_BILIARY_TRACT — lower, 0.745
- TGW_AUTONOMIC_GANGLIA — lower, 0.673
- THP1_HAEMATOPOIETIC_AND_LYMPHOID_TISSUE — the same, 1
- TM31_CENTRAL_NERVOUS_SYSTEM — lower, 0.826
- TM87_SOFT_TISSUE — lower, 0.367 ± 0.19
- TOLEDO_HAEMATOPOIETIC_AND_LYMPHOID_TISSUE — lower, 0.416
- TOV21G_OVARY — lower, 0.644
- TOV112D_OVARY — lower, 0.724
- TT1TKB_LARGE_INTESTINE — the same, 1
- TT2609C02_THYROID — lower, 0.775
- TTC442_SOFT_TISSUE — lower, 0.911
- TTC549_SOFT_TISSUE — lower, 0.52
- TTC642_SOFT_TISSUE — lower, 0.541
- TTC709_SOFT_TISSUE — lower, 0.23
- TTC1240_SOFT_TISSUE — lower, 0.187
- TT_OESOPHAGUS — lower, 0.566
- TT_THYROID — lower, 0.15
- TUHR4TKB_KIDNEY — the same, 1
- TYKNU_OVARY — lower, 0.386
- U2OS_BONE — the same, 1
- U87MG_CENTRAL_NERVOUS_SYSTEM — lower, 0.732
- U118MG_CENTRAL_NERVOUS_SYSTEM — lower, 0.983
- U178_CENTRAL_NERVOUS_SYSTEM — lower, 0.636
- U251MG_CENTRAL_NERVOUS_SYSTEM — lower, 0.873
- U266B1_HAEMATOPOIETIC_AND_LYMPHOID_TISSUE — lower, 0.784
- U343_CENTRAL_NERVOUS_SYSTEM — the same, 1
- U937_HAEMATOPOIETIC_AND_LYMPHOID_TISSUE — the same, 1
- U2904_HAEMATOPOIETIC_AND_LYMPHOID_TISSUE — lower, 0.826
- U2940_HAEMATOPOIETIC_AND_LYMPHOID_TISSUE — the same, 1
- U2973_HAEMATOPOIETIC_AND_LYMPHOID_TISSUE — lower, 0.734
- UACC62_SKIN — lower, 0.901
- UACC257_SKIN — the same, 1
- UBLC1_URINARY_TRACT — lower, 0.437
- ULA_HAEMATOPOIETIC_AND_LYMPHOID_TISSUE — lower, 0.813
- UMRC3_KIDNEY — lower, 0.929
- UMRC7_KIDNEY — lower, 0.773
- UMUC1_URINARY_TRACT — lower, 0.703
- UMUC5_URINARY_TRACT — lower, 0.749
- UMUC6_URINARY_TRACT — lower, 0.585
- UMUC7_URINARY_TRACT — the same, 1
